Assay results from PubChem BioAssay AID1648 (Sanford-Burnham Center for Chemical Genomics, 2009).
The source made the active and inactive calls. The rule behind the calls is not given here.

The molecules below were run against Serine/threonine-protein kinase mTOR (Homo sapiens) (UniProt P42345) (assay: mTOR FRB domain ligand binding – biophysical, NMR (AID 1648)). Conditions: NMR binding to FRB domain, chemical shift.
Chain of Serine/threonine-protein kinase mTOR (Homo sapiens) (P42345 2015-2114): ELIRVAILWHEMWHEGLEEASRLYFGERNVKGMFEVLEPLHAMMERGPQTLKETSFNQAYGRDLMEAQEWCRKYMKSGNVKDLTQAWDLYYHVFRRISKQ
With C[C@@H](N)[C@@H](O)c1ccccc1 the Kd was > 4 mM (inactive). NC1=NC(=O)/C(=C\c2cccnc2)S1 was tested, and the Kd was > 4 mM (inactive). In the case of CN1CCN(CC(=O)N2CCc3ccccc32)CC1, the Kd is reported as > 4 mM (inactive). In the case of NC(=O)CS(=O)(=O)c1ccc2ccccc2c1, the Kd is reported as > 4 mM (inactive). In the case of COc1ccc(-c2coc3c(O)c(OC)ccc3c2=O)cc1, the Kd is reported as > 4 mM (inactive). For COCC(=O)Nc1c(C(N)=O)oc2ccccc12, the Kd was > 4 mM (inactive). In the case of Cc1cc(NC(=O)c2ocnc2C)no1, the Kd is reported as > 4 mM (inactive). With CN(C)CCNC(CC(=O)Nc1ccccc1)C(=O)O (configuration not stated) the Kd was > 4 mM (inactive). In the case of NS(=O)(=O)c1ccc(NC(=S)NC2CC2)cc1, the Kd is reported as > 4 mM (inactive). In the case of O=C1CN(C(=O)c2ccccc2)c2ccccc2N1, the Kd is reported as > 4 mM (inactive). With Nc1ccc2nsnc2c1 the Kd was > 4 mM (inactive). In the case of CCOC(=O)c1ccc(F)c(F)c1, the Kd is reported as > 4 mM (inactive). Cn1c(SCCC(=O)O)nnc1-c1cccnc1 was tested, and the Kd was > 4 mM (inactive). For COc1ccccc1NC(=O)c1snnc1C, the Kd was > 4 mM (inactive). C=C1C2CC[C@H]3[C@]4(C)C[C@H](OC5OC(CO)C(OS(=O)(=O)O)C(OS(=O)(=O)O)C5OC(=O)CC(C)C)C[C@@H](C(=O)O)[C@H]4CC[C@]3(C2)[C@H]1O (some centres not stated) was tested, and the Kd was > 4 mM (inactive). For S=C(c1ccc(N2CCOCC2)cc1)N1CCCCC1, the Kd was > 4 mM (inactive). For Nc1cc(C(F)(F)F)ccc1N1CCOCC1, the Kd was > 4 mM (inactive). With Cc1noc(C)c1C(=O)Nc1ccc2c(c1)CCC2 the Kd was > 4 mM (inactive). For CCSc1nnc2[nH]c(=O)cc(C)n12, the Kd was > 4 mM (inactive). With CC(C)=CCc1c2c(c3occ(-c4ccc(O)cc4)c(=O)c3c1O)C=CC(C)(C)O2 the Kd was > 4 mM (inactive). With O=C(NCc1ccncc1)c1cccc(F)c1 the Kd was > 4 mM (inactive). In the case of CC(=O)Nc1ccc2c(c1)n(C)c(=O)n2C, the Kd is reported as > 4 mM (inactive). In the case of CN(C)C(=O)Nc1ccc(F)cc1F, the Kd is reported as > 4 mM (inactive). With O=C(O)Cn1c(=O)sc2ccccc21 the Kd was > 4 mM (inactive). For C=C1CCC2C(CC2(C)C)C(=O)CCC1O (configuration not stated), the Kd was > 4 mM (inactive). For C=C1C2=CC(=O)O[C@@H](c3ccoc3)[C@]2(C)CCC1[C@@]1(C)C=CC(=O)C(C)(C)[C@@H]1CC(=O)OC (some centres not stated), the Kd was > 4 mM (inactive). CC(C)n1nnc2cc(C(=O)O)ccc21 was tested, and the Kd was > 4 mM (inactive). Cn1c(NCC(=O)O)nc2c1c(=O)[nH]c(=O)n2C was tested, and the Kd was > 4 mM (inactive). With OCC12COC3c4ccccc4C(OC1)N32 (configuration not stated) the Kd was > 4 mM (inactive). In the case of Nc1nc(SCc2ccc3c(c2)OCO3)n[nH]1, the Kd is reported as > 4 mM (inactive). In the case of NC1CS(=O)(=O)CC1O (configuration not stated), the Kd is reported as > 4 mM (inactive). In the case of O=C(c1ccco1)N1CCCN(C(=O)c2ccco2)CC1, the Kd is reported as > 4 mM (inactive). With CN=C(C)c1c(O)n(C)c(=S)n(C)c1=O the Kd was > 4 mM (inactive). Cc1ccc(Nc2nnns2)cc1C was tested, and the Kd was > 4 mM (inactive). In the case of Cc1nc(-c2ccccc2)sc1CN, the Kd is reported as > 4 mM (inactive). With NC(=O)COc1ccccc1O the Kd was > 4 mM (inactive). COC1CC(O[C@H]2CC[C@]3(C=O)C4CC[C@]5(C)C(C6=CC(=O)OC6)CC[C@]5(O)C4CC[C@]3(O)C2)OC(C)C1O (some centres not stated) was tested, and the Kd was > 4 mM (inactive). With O=c1nc(N2CCOCC2)nc2n1CCO2 the Kd was > 4 mM (inactive). For CSc1nc(NC(C)(C)C)nc(N2CCOCC2)n1, the Kd was > 4 mM (inactive). With O=C(CN1CCOCC1)Nc1nccs1 the Kd was > 4 mM (inactive). With CC(O)c1ccc(C(C)O)cc1 (configuration not stated) the Kd was > 4 mM (inactive). With OCC1COc2ccccc2O1 (configuration not stated) the Kd was > 4 mM (inactive). For CC(=O)c1c(O)n(C)c(=S)n(C)c1=O, the Kd was > 4 mM (inactive). In the case of CC(C)(C)c1cc(N)n[nH]1, the Kd is reported as > 4 mM (inactive). For CC1(C)Cc2c(C#N)c(N)n(-c3ccccc3)c(=O)c2CO1, the Kd was > 4 mM (inactive). CC(C)[C@@H]1CC[C@@H](C)C[C@H]1OC(=O)c1ccccc1 was tested, and the Kd was > 4 mM (inactive). In the case of COCC(=O)OCn1nnc2ccccc2c1=O, the Kd is reported as > 4 mM (inactive). With Cc1cc(C)n2c(SCc3c(C)noc3C)nnc2n1 the Kd was > 4 mM (inactive). O=C1c2ccncc2C(=O)N1CO was tested, and the Kd was > 4 mM (inactive). In the case of NCc1cn2ccccc2n1, the Kd is reported as > 4 mM (inactive). CC(O)(C(=O)O)c1ccccc1 (configuration not stated) was tested, and the Kd was > 4 mM (inactive). With COc1ccccc1NC(=O)c1ccc(C)s1 the Kd was > 4 mM (inactive). For NC(=O)C(=O)Nc1nc(-c2ccccc2)cs1, the Kd was > 4 mM (inactive). For O=C(Cc1c(F)cccc1Cl)Nc1ccon1, the Kd was > 4 mM (inactive). In the case of COc1ccc2c(c1)OC/C(=C\c1ccc(OC)c(O)c1)C2=O, the Kd is reported as > 4 mM (inactive). In the case of Nc1ccc(-n2cccn2)cc1, the Kd is reported as > 4 mM (inactive). CC(=O)Nc1ccn(Cc2c(F)cccc2Cl)n1 was tested, and the Kd was > 4 mM (inactive). With c1ccc(CN2CCC3(CC2)Nc2ccccc2CO3)cc1 the Kd was > 4 mM (inactive). For Cc1cc(-c2ccc(Cl)cc2)n2nc(N)nc2n1, the Kd was > 4 mM (inactive). Cc1nc(-c2ccccc2)ncc1CO was tested, and the Kd was > 4 mM (inactive). In the case of NCc1ccc(N2CCOCC2)cc1, the Kd is reported as > 4 mM (inactive). For Cc1cccnc1NC1=NCC(C)S1 (configuration not stated), the Kd was > 4 mM (inactive). With O=C(Nc1ccc2c(c1)OCO2)c1cccs1 the Kd was > 4 mM (inactive). For COc1cc2nc(N3CCNCC3)nc(N)c2cc1OC, the Kd was > 4 mM (inactive). In the case of O=C1C2C3C=CC(C3)C2C(=O)N1c1cccnc1 (configuration not stated), the Kd is reported as > 4 mM (inactive). For CC(C)[C@@H]1CC[C@@H](C)CC1=O, the Kd was > 4 mM (inactive). For NC(=O)CS(=O)(=O)c1ccc(Cl)cc1, the Kd was > 4 mM (inactive). In the case of O=c1ccnc(Nc2ccccc2O)[nH]1, the Kd is reported as > 4 mM (inactive). For Cc1noc(C)c1C(=O)N1CCc2ccccc21, the Kd was > 4 mM (inactive). In the case of Cc1c(N=CN2CCOCC2)c(=O)n(C)c(=O)n1C, the Kd is reported as > 4 mM (inactive). For Oc1ccccc1-c1cc(C(F)(F)F)[nH]n1, the Kd was > 4 mM (inactive). For C[C@H]1[C@H]2CCC3C4CC=C5C[C@@H](N(C)C)CC[C@]5(C)C4CC[C@@]32CN1C (some centres not stated), the Kd was > 4 mM (inactive). In the case of CC(C)CC(=O)Nc1c[nH]c(=O)[nH]c1=O, the Kd is reported as > 4 mM (inactive). In the case of Cc1ncoc1C(=O)Nc1ncc([N+](=O)[O-])s1, the Kd is reported as > 4 mM (inactive). In the case of Cc1nc2[nH]onc2c2nccc(=O)c12, the Kd is reported as > 4 mM (inactive). With O=C(Nc1ccc(F)cc1F)c1ccco1 the Kd was > 4 mM (inactive). O=C(c1ccncc1)N1CCN(C(=O)c2ccncc2)CC1 was tested, and the Kd was > 4 mM (inactive). COC(=O)C1CCN(c2ccc(Cl)nn2)CC1 was tested, and the Kd was > 4 mM (inactive). With COc1ccc(/C=C2/C(=O)N=C(N)N2C)cc1OC the Kd was > 4 mM (inactive). In the case of CN(c1ccccc1C(=O)N1CCCC1)S(C)(=O)=O, the Kd is reported as > 4 mM (inactive). In the case of Nc1ccc2[nH]ccc2c1, the Kd is reported as > 4 mM (inactive). With O=C1C2C3C=CC(C3)C2C(=O)N1CCCO (configuration not stated) the Kd was > 4 mM (inactive). For Cc1ccc(C)n1NC(=O)c1cccs1, the Kd was > 4 mM (inactive). CC(=O)Nc1cc2c(cc1C(=O)C(C)C)OCCO2 was tested, and the Kd was > 4 mM (inactive). For O=C1c2ccccc2-c2ncnc3cccc1c23, the Kd was > 4 mM (inactive). In the case of CC(=O)O[C@H]1C[C@@H](OC(C)=O)C(C)(C)C2C[C@@H](OC(C)=O)[C@]3(C)C(CC[C@@]4(C)[C@H](c5ccoc5)C(=O)[C@H]5O[C@]543)[C@]21C (some centres not stated), the Kd is reported as > 4 mM (inactive). Cc1c(CO)cnn1-c1ccccc1 was tested, and the Kd was > 4 mM (inactive). CC(=O)Nc1ccc(-c2ccc3nncn3n2)cc1 was tested, and the Kd was > 4 mM (inactive). CC1(C)C(=O)[C@@H]2C[C@@]3(O)C4=CC(=O)O[C@@H](c5ccoc5)[C@]4(C)CCC3C(C)(C2=O)[C@H]1CC(=O)O (some centres not stated) was tested, and the Kd was > 4 mM (inactive). For CN(C)N1C(=O)c2ccccc2C1=O, the Kd was > 4 mM (inactive). For CCN1C[C@@]2(COC)C3[C@@H](OC)[C@H]4[C@@H]1[C@]3(C(OC)C[C@H]2O)C1C[C@@]2(O)[C@H](OC(=O)c3ccccc3)C1[C@]4(OC(C)=O)[C@@H](O)[C@@H]2OC (some centres not stated), the Kd was > 4 mM (inactive). In the case of COC(=O)C[C@@H]1C2(C)C(=O)[C@@H](CC3=C4C=C(OC)O[C@@H](c5ccoc5)[C@]4(C)CCC32)[C@H](O)C1(C)C (some centres not stated), the Kd is reported as > 4 mM (inactive). With OC1CC(c2ccccc2)NC2(CCCC2)C1 (configuration not stated) the Kd was > 4 mM (inactive). CC(=O)Oc1c(-c2ccccc2)oc2c(CC=C(C)C)c3c(c(OC(C)=O)c2c1=O)C=CC(C)(C)O3 was tested, and the Kd was > 4 mM (inactive). CCOc1ccc(C)cc1S(=O)(=O)n1ccc(C)n1 was tested, and the Kd was > 4 mM (inactive). In the case of NN1C(=O)/C(=C/c2ccc(O)c(O)c2)SC1=S, the Kd is reported as > 4 mM (inactive). Cc1c(C(=O)NC2=NCCS2)oc2ccccc12 was tested, and the Kd was > 4 mM (inactive). COc1ccc2c(c1)OCc1c-2oc2cc(OC)ccc12 was tested, and the Kd was > 4 mM (inactive). CC1(C)CC2C1CC[C@]1(C)CCC3C(C(=O)O)CC(=O)O[C@@]32C1 (some centres not stated) was tested, and the Kd was > 4 mM (inactive). With NC1=NCc2ccccc21 the Kd was > 4 mM (inactive). With O=C(NCN1CCOCC1)c1cnccn1 the Kd was > 4 mM (inactive). COc1ccc(S(N)(=O)=O)cc1 was tested, and the Kd was > 4 mM (inactive). N#CCSc1nc(-c2ccccc2)cs1 was tested, and the Kd was > 4 mM (inactive). For C[C@]12CCC3C(CC[C@H]4C[C@@H](O)CC[C@]34C)C1CCC2=O (some centres not stated), the Kd was > 4 mM (inactive). O=C(O)/C=C/C=C/c1ccccc1 was tested, and the Kd was > 4 mM (inactive). Oc1ccc(-n2cncn2)cc1 was tested, and the Kd was > 4 mM (inactive). For Cc1ccc(S(=O)(=O)/N=C2\NC(=O)CS2)cc1, the Kd was > 4 mM (inactive). COc1ccccc1NS(=O)(=O)c1c[nH]c(=O)[nH]c1=O was tested, and the Kd was > 4 mM (inactive). With C=C1C2CC[C@@]3(C)[C@H](c4ccoc4)OC(=O)C[C@]13O[C@H]1CC(O)C(C)(C)C(CC(=O)OC)[C@@]21C (some centres not stated) the Kd was > 4 mM (inactive). For Cc1cc(C(F)(F)F)nn1CC(N)=O, the Kd was > 4 mM (inactive). With O=C1CCCc2c1nc(-c1ccccc1)n2O the Kd was > 4 mM (inactive). In the case of CCOC(=O)N1CCN(c2ncnc3c2cnn3C)CC1, the Kd is reported as > 4 mM (inactive).
